Data taken from US12403132B2, “Methods of treating bone marrow failure syndromes and compositions for use in the same” (The Board of Trustees of the Leland Stanford Junior …, priority 2020, dated 2025).

What was measured:
[1] = Solubility; type: physicochemical; details: data not shown
[2] = test system: RPS19; assay: RPS19 expression in differentiating HSPCs (qRT-PCR); type: cell-based, human; details: differentiating RPS19-insufficient HSPCs
Text: As the suppression of NLK by miRNAs has been documented, we sought to screen a number of common nutritional supplements that have been documented to modulate miRNAs in their ability to improve erythroid expansion in an in vitro model of DBA. To induce ribosomal insufficiency, CD34+ HSPCs from human cord blood were transduced with a shRNA against RPS19 that reduced RPS19 expression by approximately 50% to recapitulate decreased function due to RPS19 mutations in DBA patients. As described above, metformin improves erythroid expansion by miRNA-mediated suppression of NLK mRNA expression and was therefore included as a positive control. […] Efficacy of shRNA against RPS19 was quantified by qRT-PCR. […] To determine if the ginsenoside Rb1 effect was through the inhibition of NLK, we treated differentiating HSPCs with ginsenoside Rb1 that were transduced with a non-targeting control or siRNA against NLK. Ginsenoside R1 alone or siRNA against NLK alone improved erythroid expansion by 2.7- and 5.1-fold, respectively.

[3] = test system: murine NLK 3′UTR; assay: Luciferase fused to murine NLK 3′UTR in K562 cells; type: cell-based, mouse; details: transient transfection in K562, metformin 72 hrs
[4] = test system: BFU-E erythroid and CFU-GM myeloid colonies; assay: Colony assays in methylcellulose (BFU-E, CFU-GM); type: cell-based, human; details: metformin
Method: FIG. 9. Metformin improves expansion of CD235+ erythroblasts and BFU-E erythroid colony formation in human RPS19- and RPL11-insufficiency from CB CD34+ progenitors. (Panel A). CD34+ HSPCs were transduced with shRNA against control (shLuc), RPS19 (shRPS19) or RPL11 (shRPL11) and after sorting, were differentiated for 14 days in the presence or absence of 50 mM metformin. Cells were counted and the percentage expressing CD235+ erythroid (left) and CD11b+ myeloid (right) was determined by flow cytometry. Obtained values were multiplied to give an overall number that was normalized to the untreated control (grey columns). Values are presented as a percentage of the untreated control. (Panel B) Direct comparison between metformin treated and untreated cultures is facilitated by normalizing the metformin-treated values to the untreated values in control, RPS19- and RPL11-insufficient groups. Values are expressed as a fold induction relative to untreated. (Panel C) Transduced and sorted CD34+ progenitors were cultured in methylcellulose in the presence or absence of metformin for 16 days and BFU-E erythroid (left) and CFU-GM myeloid (right) colonies scored. Values are represented as the percentage of colonies induced in untreated controls (grey columns). (Panel D). To directly compare the effect of metformin in each group, metformin-treated cultures were normalized to untreated cultures and are expressed as a fold induction of the untreated control. (Panel E) Representative images of BFU-E colonies at day 14.Scale bar=[…]. […] Statistics: two-tailed Student's t test, significant *P<0.05
Sorted hematopoietic cells were seeded in methylcellulose medium containing IL-3, stem cell factor, granulocyte macrophage colony-stimulating factor, and erythropoietin (H4434; […] Technologies) in triplicate, with 1000 cells per plate. Erythroid (burst-forming unit erythroid) and myeloid (colony-forming unit, granulocyte-macrophage) colonies were counted 14-18 days later. In some cases, 3000 (shRPL11) or 5000 (shRPS19+TGFβ) cells per plate were added to ensure enough colonies for robust statistical analysis.
Sorted HSPCs were seeded in cytokine-containing methylcellulose medium (H4434; […] Technologies) in triplicate, with 1000 cells per plate. Erythroid (burst-forming unit erythroid) and myeloid (colony-forming unit, granulocyte-macrophage) colonies were counted 14-18 days later.

For Fc1ccc(Cl)cc1-c1nc(Nc2ccncc2)c2nccnc2n1 [SD208], the solubility [1] was “poor solubility”.
With CC(C)=CCC[C@](C)(O[C@@H]1O[C@H](CO[C@@H]2O[C@H](CO)[C@@H](O)[C@H](O)[C@H]2O)[C@@H](O)[C@H](O)[C@H]1O)[C@H]1CC[C@]2(C)[C@@H]1[C@H](O)C[C@@H]1[C@@]3(C)CC[C@H](O[C@@H]4O[C@H](CO)[C@@H](O)[C@H](O)[C@H]4O[C@@H]4O[C@H](CO)[C@@H](O)[C@H](O)[C@H]4O)C(C)(C)[C@@H]3CC[C@]12C [ginsenoside Rb1] the “influence on RPS19 expression” value [2] was “did not influence”.
With CN(C)C(=N)N=C(N)N [metformin] the “decrease of luciferase activity, murine 3′UTR” value [3] was 61.6%, the “fold increase of BFU-E colonies” value ([4]; RPL11-insufficiency) was 2.2 fold and the “BFU-E erythroid colonies, % of vector control (shLuc)” value ([4]; RPL11-insufficiency, 8.2% untreated) was 14.3%. The “fold increase of BFU-E colonies” value ([4]; RPS19-insufficiency) was 2.9 fold, the “BFU-E erythroid colonies, % of vector control (shLuc)” value ([4]; RPS19-insufficiency, 7.7% untreated) was 16.3% and the “size of BFU-E colonies” value ([4]; RPS19-insufficient progenitors) was “only modestly improve”. The “effect on CFU-GM colonies” value [4] was “did not affect”.
